Calls of active or inactive are those of the source.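 Rule for the calls: active = mean half-maximal activating concentration from the dose-response fit at or below a set limit; inactive = the rest.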

In this assay the target is CHO-XBP1 luciferase reporter, IRE1-XBP1 UPR activation. Nature of the assay: activators of IRE1-XBP1 UPR arm, dose response, counter-screen for apoptotic UPR arm activators, CHO-XBP1 cells, luminescence (AID 489040).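 Note: reporter read after six hours of compound exposure.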
On to `CCc1nnc(NC(=O)CSc2nc(-c3ccccc3)cc(-c3ccc(OC)cc3)c2C#N)s1`, for which the EC50 – broadly, the concentration needed to bring the measured effect to its halfway point – was > 80 µM (inactive).
As to `Cc1c(C(=O)c2no[n+]([O-])c2C(=O)c2cnn(C)c2C)cnn1C`, the EC50 is > 80 µM (inactive).
For `O=C(CCl)Nc1cccc(CP(=O)(c2ccccc2)c2ccccc2)c1`, the EC50 was > 80 µM (inactive).
Under `O=C(C#Cc1cccc([N+](=O)[O-])c1)c1ccccc1` stands > 80 µM (inactive).
For `O=C(NCc1cccnc1)/C(=C\c1ccc(-c2ccc(Br)cc2)o1)S(=O)(=O)c1ccccc1`, the EC50 is > 80 µM (inactive).
For the compound `Cc1ccc(Nc2nc(-c3ccc(O)c(O)c3)cs2)nc1`, the EC50 was > 80 µM (inactive).
As for `Cc1ccc(Cc2cnc(NC(=O)/C(C#N)=C/c3ccc(-c4ccc([N+](=O)[O-])cc4)o3)s2)cc1`, the EC50 result is “inactive”.
As to `Cc1cccc(C)c1NC(=O)c1nc(S(=O)(=O)Cc2ccccc2)ncc1Cl`, the EC50 was > 80 µM (inactive).
The value for `Cc1ccccc1CS(=O)(=O)c1ncc(Cl)c(C(=O)Nc2ccc(F)cc2)n1` was > 80 µM (inactive); that for `CC(C)CNC(=O)c1coc(=O)c(Br)c1` was > 80 µM (inactive); that for `COc1cc2nc(=S)n3[nH]c(CCn4nc(C)cc4C)nc3c2cc1OC` was > 80 µM (inactive).
On to `O=C(Nc1nc(-c2ccc3ccccc3c2)cs1)c1ccc(N2C(=O)CCC2=O)cc1`, for which the EC50 is > 80 µM (inactive).
`Cc1cc(C)c2c(c1)/C(=c1/sc3n(c1=O)CN(c1ccccc1)CN=3)C(=O)N2`: the EC50 result is “inactive”.
Consider `Cc1nn(-c2ccccc2)c(C)c1/C=N/NC(=O)CSc1nc2ccccc2c(=O)n1-c1ccc(Br)cc1`, for which the EC50 is 9.09 µM.
For the compound `O=C(COC(=O)c1ccccc1C(=O)c1ccc(Cl)c([N+](=O)[O-])c1)NC1CCCCCC1`, the EC50 is > 80 µM (inactive).
On to `CCOC(=O)C1=C(CCl)NC(=O)NC1c1ccc2c(c1)OCO2` (stereo unspecified), for which the EC50 is > 80 µM (inactive).
`CCOC(=O)C(=Cc1ccc(-n2ccnc2)cc1)C(=O)OCC`: the EC50 was > 80 µM (inactive).
In the case of `COc1ccc(N2C(=O)/C(=C/C=C/c3ccccc3[N+](=O)[O-])C(=O)NC2=S)cc1`, the EC50 was > 80 µM (inactive).
Under `Cc1ccc(N2CCN(c3ccc(NCc4nc5ccccc5n4C)cc3)CC2)cc1` stands “inactive”.
As to `Cc1cc(C)cc(NC(=O)/C(C#N)=C/c2cn(CC(=O)NCc3ccco3)c3ccccc23)c1`, the EC50 was > 80 µM (inactive).
The value for `COC(=O)C1=C(C)N(c2ccc(C)c(C)c2)/C(=C/c2ccco2)C1=O` was > 80 µM (inactive).
Turning to `CSc1nnc(NC(=O)c2nc(S(=O)(=O)Cc3ccccc3F)ncc2Cl)s1`, the EC50 was > 80 µM (inactive).
For `O=C(CCN1C(=O)C2C3C=CC(C4CC34)C2C1=O)Oc1cccc2cccnc12` (stereo unspecified), the EC50 was > 80 µM (inactive).
With `CN(/N=C\c1ccc(O)c(O)c1)c1nc(-c2ccccc2)cc(-c2ccccc2)n1`, the EC50 was 4.96 µM.
For the compound `Cc1ccc(Sc2c([N+](=O)[O-])c(=O)n(C)c3ccccc23)cc1`, the EC50 is > 80 µM (inactive).
As for `Cc1ccnc(Nc2nc(-c3ccc(O)c(O)c3)cs2)c1`, the EC50 was > 80 µM (inactive).
In the case of `S=c1[nH]nc(-c2cc(-c3ccccc3)n[nH]2)n1/N=C/C(Br)=C/c1ccccc1`, the EC50 is > 80 µM (inactive).
On to `O=S(=O)(CCSc1nc2ccccc2s1)c1nc2ccccc2s1`, for which the EC50 is > 80 µM (inactive).
Regarding `COc1ccc(C(C[N+](=O)[O-])n2nc(C)cc2C)cc1` (stereo unspecified), the EC50 was > 80 µM (inactive).
`CC1=NOC(=O)/C1=C\c1ccc(-c2ccc(Cl)cc2Cl)o1`: the EC50 is > 80 µM (inactive).
As for `O=C(NC(=S)Nc1ccc(NC(=O)c2cccs2)cc1)c1cc2ccccc2o1`, the EC50 is > 80 µM (inactive).
On to `Cc1ccc(-c2cc(NC(=O)CCl)n(-c3ccccc3)n2)cc1`, for which the EC50 is > 80 µM (inactive).
Turning to `COc1ccc(OC)c(N=Cc2c(O)c3ccccc3oc2=O)c1`, the EC50 was 12 µM.
The value for `Nc1nc(CC(=O)CSc2ccc(Cl)cc2)nc(Nc2ccc(F)cc2)n1` was > 80 µM (inactive).
Under `Cc1nc2ccccc2n1-c1nc(-c2ccco2)cc(C(F)(F)F)n1` stands > 80 µM (inactive); under `O=C(N/N=C/c1ccccn1)c1cc([N+](=O)[O-])cc([N+](=O)[O-])c1`, > 80 µM (inactive); under `COC(=O)C(=Cc1ccc(OCc2ccc([N+](=O)[O-])cc2)c(OC)c1)C(=O)OC`, > 80 µM (inactive).
As to `Cc1cccc(CSc2cccc3cccnc23)c1`, the EC50 is > 80 µM (inactive).
Regarding `O=c1nc(Nc2cccc(Cl)c2)oc2cc(Cl)oc(=O)c12`, the EC50 is > 80 µM (inactive).
For `CCOC(=O)C(=Cc1ccc(F)cc1)C(=O)OCC`, the EC50 was > 80 µM (inactive).
Consider `COc1ccc(/C=C/C(=O)c2ccc([N+](=O)[O-])o2)cc1`, for which the EC50 was > 80 µM (inactive).
Regarding `CN1CCN(Cc2cc(COCc3ccccc3)c3cccnc3c2O)CC1`, the EC50 entry was “inactive”.
`O=C(N/N=C/c1ccc(O)c(O)c1)NC12CC3CC(CC(C3)C1)C2`: the EC50 was 14.2 µM.
As for `CCn1cc(C(=O)NC(=S)Nc2sc3c(c2C(=O)OC)CCCCCC3)cn1`, the EC50 result was “inactive”.
For the compound `COc1ccc(N=c2oc3ccc(OC)cc3cc2-c2nc3ccccc3[nH]2)cc1`, the EC50 was 12.5 µM.
For the compound `CCCCNC1C(CC)C(CCC)C(C#N)(C#N)C1(C#N)C#N` (stereo unspecified), the EC50 is > 80 µM (inactive).
Turning to `Cc1ccccc1/C=C/C(=O)c1ccc([N+](=O)[O-])o1`, the EC50 was > 80 µM (inactive).
Take `COc1ccc(/C=N/Nc2cc(C)nc(-n3nc(C)cc3C)n2)cc1`: the EC50 is > 80 µM (inactive).
The value for `N#CC(C#N)=C1C=CC=CN1/C(=C\c1ccccc1)C(=O)c1cccs1` was > 80 µM (inactive); that for `O=C(Nc1nc2c(F)cc(F)cc2s1)c1ccccn1` was > 80 µM (inactive); that for `CCOC(=O)N1CCN(Cc2ccc(O)c3ncccc23)CC1` was > 80 µM (inactive).
For the compound `COc1cc(NC(=O)c2cncc(-c3ccc(C#N)cc3)c2)cc(C(=O)Nc2cccc(C(F)(F)F)c2)c1`, the EC50 is 19.3 µM.
Turning to `Oc1ccc(/C=N/Nc2nc(N3CCCC3)nc(N3CCCC3)n2)cc1O`, the EC50 is 18 µM.
Under `O=C(CSc1ccccn1)Nc1nonc1[N+](=O)[O-]` stands > 80 µM (inactive).
Regarding `Cc1ccc(-c2csc3ncnc(Sc4nnc(CN5CCCCCC5=O)o4)c23)cc1`, the EC50 was > 80 µM (inactive).
Turning to `Cc1cc(C)nc(S/C=C/C(=O)c2ccccc2)n1`, the EC50 was > 80 µM (inactive).
Under `CCCCCOc1ccc(N2C(=O)CC(N(O)c3ccccc3)C2=O)cc1` (stereo unspecified) stands > 80 µM (inactive); under `COc1ccc(CCn2c(C)cc(C(=O)CCl)c2C)cc1OC`, > 80 µM (inactive); under `COc1ccc(-c2cc3ccccc3oc2=O)cc1NC(=S)NC(=O)c1ccc2c(c1)OCCO2`, 4.27 µM.
The value for `N#C/C(=C\c1ccc(OCc2ccccc2)cc1)C(=O)Nc1nc2c(s1)CCN(Cc1ccccc1)C2` was > 80 µM (inactive); that for `CC(=O)c1cccc(NC(=O)CSc2ncc(C(=O)Nc3ccccc3)c(=O)n2C)c1` was > 80 µM (inactive); that for `CC(=O)c1ccc(NC(=O)COC(=O)c2ccccc2N=Nc2ccc(N(C)C)cc2)cc1` was 4.12 µM.
Regarding `FC(F)(F)c1nnc2c(Sc3ccc(Cl)cc3)nc3ccccc3n12`, the EC50 was > 80 µM (inactive).
Take `O=C(Nc1nc(-c2ccccn2)cs1)c1cc(Cl)ccc1[N+](=O)[O-]`: the EC50 is > 80 µM (inactive).
Under `CCOc1cc(/C=C2/C(=O)ON=C2C)ccc1OCc1ccccc1F` stands > 80 µM (inactive); under `COc1ccc(/C=C/c2nc3cc(-c4ccccc4)ccc3o2)cc1O`, > 80 µM (inactive); under `O=[N+]([O-])c1cc(-c2ncccn2)c([N+](=O)[O-])s1`, > 80 µM (inactive).
Consider `CC(C)(C)c1ccc(/C=C(\c2nc3ccccc3[nH]2)S(=O)(=O)c2ccccc2)cc1`, for which the EC50 was > 80 µM (inactive).
As to `O=C1NC(=O)N(c2ccccc2)C(=O)/C1=C\C=C\c1ccccc1`, the EC50 is > 80 µM (inactive).
Consider `C=CCN=c1scc(C)n1/N=C/c1ccc(O)c(O)c1`, for which the EC50 is 17.4 µM.
As to `COc1ccc(O)c(/C=N/Nc2nc(Nc3ccccc3)nc(-n3nc(C)cc3C)n2)c1`, the EC50 is > 80 µM (inactive).
For the compound `Cc1ccc(CN2CCN(/N=C/c3ccc(O)c(O)c3)CC2)cc1`, the EC50 is > 80 µM (inactive).
With `CC1CCCCC1N1CN=C(Nc2nc3ccccc3s2)NC1` (stereo unspecified), the EC50 was > 80 µM (inactive).
Regarding `CS(=O)(=O)c1nc(-c2ccc(Br)cc2)cc(-c2ccccc2)c1C#N`, the EC50 was > 80 µM (inactive).
Regarding `COc1ccc(C(=O)Sc2ccc(Cl)cc2)cc1OC`, the EC50 was > 80 µM (inactive).
On to `C=C1C(=O)C=C[C@]2(C)C[C@@H]3OC(=O)[C@](C)(O)[C@H]3C[C@@H]12`, for which the EC50 is > 80 µM (inactive).
Under `COc1ccc(N2C(=O)/C(=C/c3cccs3)C(=O)NC2=S)cc1` stands > 80 µM (inactive).
Turning to `O=C(Nc1nc(-c2ccccn2)cs1)c1ccc(Cl)s1`, the EC50 entry was “inactive”.
For `Cc1ccc(C(C)C)c(OCc2ccc(C(=O)N/N=C/c3ccc(O)c(O)c3)cc2)c1`, the EC50 is 4.41 µM.
On to `Cc1ccc(-c2nnc(-c3ccc(NC(=O)c4cccs4)cc3)o2)cc1`, for which the EC50 was 11.9 µM.
With `CC(=O)N(\C=C/C=C/C=C1\Sc2ccccc2C1=O)c1ccccc1`, the EC50 is > 80 µM (inactive).
On to `N#CC12COC3(CCCCC3C1(C#N)C#N)OC2=N` (stereo unspecified), for which the EC50 was > 80 µM (inactive).
With `O=C(CCl)N1N=C(c2cccs2)CC1c1ccco1` (stereo unspecified), the EC50 is > 80 µM (inactive).
Under `Cc1cccc(Nc2nc(-c3ccccn3)cs2)n1` stands > 80 µM (inactive); under `CCCC[C@@H](C)C[C@@H](C)C(=O)N(C)[C@@H](CC(C)C)C(=O)N[C@H](C(=O)N(C)[C@H](C(=O)N1C[C@@H](O)C[C@H]1C(=O)N1C(=O)C=C[C@@H]1C)C(C)C)C(C)OC(C)=O` (stereo partly specified), 15.6 µM; under `O=C1NN(c2cccc(Br)c2)C(=O)/C1=C/c1cccs1`, 8.89 µM.

For the origin of these results see PubChem BioAssay AID489040 (Sanford-Burnham Center for Chemical Genomics, 2010).
